In patent publication US11912788B2, “Probiotic molecules for reducing pathogen virulence” (priority 2017, dated 2024):

Columns and labels:
[1] = tested on: Staphylococcus aureus (strain alias LA-414M SPA t034); test: Cefoxitin MIC testing with and without cell-free supernatant; format: cell-based; details: MRSA LA 414M, 0 mg/mL dried cell-free (cefoxitin only)
Description: (§1) Three methicillin resistant Staphylococci (MRS) strains were used in these experiments: 1) Staphylococcus pseudintermedius (strain alias C260 22-2011 dtqa), a clinical isolate from a dog skin infection; 2) Staphylococcus aureus (strain alias LA-414M SPA t034), a livestock-associated strain isolated from beef purchased from a grocery store in Charlottetown, PEI, Canada; and 3) Staphylococcus aureus (strain alias 81M SPA t008), isolated from poultry meat purchased from a grocery store in Charlottetown, PEI, Canada. All three MRS strains were provided by the Atlantic Veterinary College (AVC) at the University of Prince Edward Island. The methicillin-resistance of these strains was confirmed by AVC staff using an oxacillin disk diffusion method. The strains were originally cultured on sheep blood agar slants, and then transferred to lysogeny broth agar plates. Cefoxitin resuspended in methanol was used for antibiotic resistance testing, and growth was tested in two different media types, standard Lysogeny Broth and standard BBL™ Cation-Adjusted Mueller-Hinton Medium (Becton, Dickinson and Company). The minimum inhibitory concentrations (MICs) of the cefoxitin was determined for each strain in each respective medium in the presence and absence of the cell-free supernatant. Assays were performed according to the Clinical and Laboratory Standards Institute (CLSI) guidelines for MIC testing of Staphylococcal species [CLSI, 2015] as well as the European Committee for Antimicrobial Susceptibility Testing (EUCAST) of the European Society of Clinical Microbiology and Infectious Diseases [EUCAST, 2003].
(§2) The protocol for MIC testing was as follows. The cell-free supernatants were resuspended in the respective media and filter sterilized through a […] pore size filter. The required concentration of dried cell free supernatant was weighed and added at concentrations ranging from 0-60 mg/mL. Cefoxitin was added to obtain final concentrations ranging from 0-250 μg/mL. […] Following incubation, microplates were read at 600 nm using a microplate reader. […]

[2] = tested on: Staphylococcus pseudintermedius (strain alias C260 22-2011 dtqa); test: as above; format: cell-based; details: MSRP C260; Lysogeny Broth; 0 mg/mL dried cell-free (cefoxitin only)
Description: as §1, §2

[3] = tested on: Staphylococcus aureus (strain alias 81M SPA t008); test: Cefoxitin MIC testing with and without cell-free supernatant or its size exclusion fractions; format: cell-based
Description: as §1, §2

HilA = test: qPCR of HilA down-regulation in Salmonella, reference gene 16S; format: cell-based, Salmonella enteric typhimurium DT104; details: individual synthetic biopeptides, 50 μg per assay
Description: The cell-free supernatant was separated using Sephadex G75 resin. The samples were separated and collected into fractions: Fraction 1 (>163000 Da), Fraction 2 (163000-14500 Da), Fraction 3(14500-1300 Da), Fraction 4 (1300-110 Da), Fraction 5 (110-10 Da). The samples were collected and assayed by qPCR using Salmonella enteric typhimurium DT104 strain. The down-regulation of HilA was compared to the reference gene 16S.
The active fraction from G75 size exclusion chromatography was further separated using reverse phase chromatography. The fractions from the reverse phase: Fraction 1 (0-2 min), Fraction 2 (2-4 min), Fraction 3 (4-16 min), Fraction 4 (16-32 min), Fraction 5 (32-40 min), Fraction 6 (40-58 min). The fractions were dried and neutralized to remove acetonitrile and trifluoroacetic acid from the solvent. The dried fractions were assayed using the same qPCR assay conditions as above. The fractions were analyzed by de novo sequencing at the University of Guelph Advance Analytical center. The peptides from the active fractions of 6 batches were compared and common peptides from batches were deduced.

HylA = details: individual synthetic biopeptides, 50 μg per assay; reference gene GapA
Description: The La-5 cell-free supernatant used for these experiments was batch D4. […] Strain 1 alias UPEC99 and strain 2 alias UPEC804. The strains were cultured on LB agar. Two different media were tested LB and artificial urine medium.
The UPEC were grown for 4 hours in the presence of cell-free supernatant. The cells were harvested and the RNA was extracted. The RNA was treated with DNAse I to remove genomic DNA. The RNA was used as a template to make cDNA. The cDNA was assayed by qPCR and the gene expression was normalized to a reference gene and compared to a without cell-free media control.
The synthetic bio-peptides were analyzed at 50 μg per assay.

Molecule | Fold down-regulation HilA (HilA) [Fold] | Fold down-regulation HylA (HylA) [Fold] | further results
CO[C@@]1(NC(=O)Cc2cccs2)C(=O)N2C(C(=O)O)=C(COC(N)=O)CS[C@@H]21 [Cefoxitin] | – | – | Range of Cefoxitin concentration to inhibition growth to O.D. < 0.1 (cefoxitin MIC) ([1]; Lysogeny Broth): 30 to 40 µg/mL; Range of Cefoxitin concentration to inhibition growth to O.D. < 0.1 (cefoxitin MIC) ([1]; Mueller-Hinton Broth): 50 to 60 µg/mL; Range of Cefoxitin concentration to inhibition growth to O.D. < 0.1 (cefoxitin MIC) [2]: 125 to 175 µg/mL; Range of Cefoxitin concentration to inhibition growth to O.D. < 0.1 (cefoxitin MIC) ([3]; MRSA 81M, Lysogeny Broth, 0 mg/mL dried cell-free (cefoxitin only)): 75 to 125 µg/mL; Range of Cefoxitin concentration to inhibition growth to O.D. < 0.1 (cefoxitin MIC) ([3]; MRSA 81M, Mueller-Hinton Broth, 0 mg/mL dried cell-free (cefoxitin only)): 75 to 100 µg/mL; Range of Cefoxitin concentration to inhibition growth to O.D. < 0.1 (cefoxitin MIC) ([3]; Table 4, Staphylococcus aureus 81M, Untreated (0 mg/mL), cefoxitin only): 60 to 75 µg/mL
HLLPLP | 2.93 | 2.64 | –
MALPPK | 19.56 | 9.06 | –
YPVEPF | 0.68 | 1.03 | –
LKPTPEGD | 11.08 | 4.69 | –
CVLPPK | 3.75 | 3.20 | –
YPPGGP | 2.93 | 3.56 | –
